Converted amounts (≈) assume the structure as drawn. One block for each compound: values may come before it.
Key:
Test in all cases: ≥ marks a high value that may be exact or a test limit, other limits are often not marked, values filed in µg/mL are converted to µM
[1] = system: Staphylococcus aureus ATCC 6538
[2] = system: Pseudomonas aeruginosa ATCC 13388
[3] = system: Salmonella enterica subsp. enterica serovar Typhimurium ATCC 14028
[4] = system: Klebsiella pneumoniae ATCC 10031
[5] = system: Escherichia coli ATCC 11219
[6] = system: Candida albicans TIMM 1768
[7] = system: Acinetobacter baumannii KCTC 2508
[8] = system: Salmonella typhimurium KCTC 1926
[9] = system: Proteus vulgaris KCTC 2433
[10] = system: Bacillus subtilis KCTC 1918
[11] = system: Acinetobacter baumannii
[12] = system: Trichosporon beigelii KCTC 7707
[13] = system: Saccharomyces cerevisiae KCTC 7296
[14] = system: Staphylococcus aureus KCTC 1621
[15] = system: Staphylococcus aureus IFO 12732
[16] = system: Escherichia coli IFO 12734
[17] = system: Bacillus subtilis IFO 3513
[18] = system: Candida albicans
[19] = system: Staphylococcus aureus ATCC 25923
[20] = system: Staphylococcus epidermidis
[21] = system: Pseudomonas aeruginosa H103
[22] = system: Enterococcus faecalis ATCC 29212
[23] = system: Salmonella enterica serovar Typhimurium
[24] = system: Escherichia coli UB1005

MIC [1]: 10 µM (≈ 13.4 µg/mL)
MIC [2]: 10 µM (≈ 13.4 µg/mL)
MIC [3]: 3 µM (≈ 4.02 µg/mL)
MIC [4]: ≥ 50 µM
MIC [5]: ≥ 50 µM
Compound: CC[C@H](C)[C@H](NC(=O)[C@H](C)N)C(=O)N[C@@H](Cc1cnc[nH]1)C(=O)N[C@@H](CC(=O)O)C(=O)N[C@H](C(=O)N[C@@H](CC(C)C)C(=O)N[C@@H](CCCCN)C(=O)N[C@@H](Cc1ccc(O)cc1)C(=O)NCC(=O)N[C@@H](CCCCN)C(=O)N1CCC[C@H]1C(=O)N[C@@H](CO)C(N)=O)[C@@H](C)CC [AIHDILKYGKPS]

MIC [6]: 12.5 µM (≈ 26.2 µg/mL)
MIC [7]: 6.25 µM (≈ 13.1 µg/mL)
MIC [8]: 0.39 µM (≈ 0.819 µg/mL)
MIC [9]: 6.25 µM (≈ 13.1 µg/mL)
MIC [10]: 0.78 µM (≈ 1.64 µg/mL)
MIC [11]: 6.25 µM (≈ 13.1 µg/mL)
MIC [12]: 17.7 µM (≈ 37.1 µg/mL)
MIC [13]: 12.5 µM (≈ 26.2 µg/mL)
MIC [14]: 1.56 µM (≈ 3.28 µg/mL)
Compound: CC[C@H](C)[C@H](NC(=O)CNC(=O)[C@H](CC(C)C)NC(=O)[C@H](CCCN=C(N)N)NC(=O)[C@H](CCCCN)NC(=O)[C@H](Cc1ccccc1)NC(=O)[C@@H](NC(=O)[C@H](CCCCN)NC(=O)[C@H](CCCCN)NC(=O)[C@H](C)N)C(C)C)C(=O)NCC(=O)N[C@@H](C)C(=O)N[C@H](C(=O)N[C@@H](CC(C)C)C(=O)N[C@@H](CCCCN)C(=O)N[C@H](C(=O)N[C@@H](CC(C)C)C(=O)N[C@H](C(=O)N[C@H](C(=O)NCC(=O)O)[C@@H](C)O)[C@@H](C)O)C(C)C)C(C)C [AKKVFKRLGIGAVLKVLTTG]

MIC [6]: ≥ 50 µM
MIC [8]: 0.78 µM (≈ 1.75 µg/mL)
MIC [9]: 3.12 µM (≈ 7 µg/mL)
MIC [10]: 6.25 µM (≈ 14 µg/mL)
MIC [12]: ≥ 50 µM
MIC [13]: ≥ 50 µM
MIC [14]: 3.12 µM (≈ 7 µg/mL)
Compound: CC[C@H](C)[C@H](NC(=O)CNC(=O)[C@H](CC(C)C)NC(=O)[C@H](CCCN=C(N)N)NC(=O)[C@H](CCCCN)NC(=O)[C@H](Cc1ccccc1)NC(=O)[C@@H](NC(=O)[C@H](CCCCN)NC(=O)[C@H](CCCCN)NC(=O)[C@H](C)N)C(C)C)C(=O)NCC(=O)N[C@@H](C)C(=O)N[C@H](C(=O)N[C@@H](CC(C)C)C(=O)N[C@@H](Cc1c[nH]c2ccccc12)C(=O)N[C@H](C(=O)N[C@@H](CC(C)C)C(=O)N[C@H](C(=O)N[C@@H](Cc1c[nH]c2ccccc12)C(=O)NCC(=O)O)[C@@H](C)O)C(C)C)C(C)C [AKKVFKRLGIGAVLWVLTWG]

MIC [1]: 10 µM (≈ 12.3 µg/mL)
MIC [2]: ≥ 50 µM
MIC [3]: > 50 µM
MIC [4]: 20 µM (≈ 24.7 µg/mL)
MIC [5]: 20 µM (≈ 24.7 µg/mL)
Compound: CC[C@H](C)[C@H](NC(=O)CN)C(=O)N[C@@H](Cc1cnc[nH]1)C(=O)N[C@@H](CC(=O)O)C(=O)N[C@H](C(=O)N[C@@H](CC(C)C)C(=O)N[C@@H](CCCCN)C(=O)N[C@@H](C)C(=O)NCC(=O)N[C@@H](CCCCN)C(=O)N1CCC[C@H]1C(=O)N[C@@H](CO)C(N)=O)[C@@H](C)CC [GIHDILKAGKPS]

MIC [1]: 5 µM (≈ 7.21 µg/mL)
MIC [2]: 10 µM (≈ 14.4 µg/mL)
MIC [3]: 10 µM (≈ 14.4 µg/mL)
MIC [4]: 10 µM (≈ 14.4 µg/mL)
MIC [5]: 4 µM (≈ 5.77 µg/mL)
Compound: CC[C@H](C)[C@H](NC(=O)CN)C(=O)N[C@@H](CCCN=C(N)N)C(=O)N[C@@H](CCCN=C(N)N)C(=O)N[C@H](C(=O)N[C@@H](CC(C)C)C(=O)N[C@@H](CCCN=C(N)N)C(=O)N[C@@H](Cc1ccc(O)cc1)C(=O)NCC(=O)N[C@@H](CCCN=C(N)N)C(=O)N1CCC[C@H]1C(=O)N[C@@H](CO)C(N)=O)[C@@H](C)CC [GIRRILRYGRPS]

MIC [15]: 1.78 µM (≈ 3.13 µg/mL)
MIC [16]: 28.4 µM (≈ 50 µg/mL)
MIC [17]: 1.78 µM (≈ 3.13 µg/mL)
Compound: CC[C@H](C)[C@H](N)C(=O)N[C@@H](CC(C)C)C(=O)N1CCC[C@H]1C(=O)N[C@@H](CC(C)C)C(=O)N[C@@H](CCCCN)C(=O)N[C@@H](CC(C)C)C(=O)N1CCC[C@H]1C(=O)N[C@@H](Cc1c[nH]c2ccccc12)C(=O)N[C@@H](Cc1c[nH]c2ccccc12)C(=O)N1CCC[C@H]1C(=O)N[C@@H](Cc1c[nH]c2ccccc12)C(=O)N[C@@H](CCCN=C(N)N)C(=O)N[C@@H](CCCN=C(N)N)C(N)=O [ILPLKLPWWPWRR]

MIC [15]: 1.76 µM (≈ 3.13 µg/mL)
MIC [16]: 28.1 µM (≈ 50 µg/mL)
MIC [17]: 1.76 µM (≈ 3.13 µg/mL)
Compound: CC[C@H](C)[C@H](N)C(=O)N[C@@H](CC(C)C)C(=O)N1CCC[C@H]1C(=O)N[C@@H](Cc1c[nH]c2ccccc12)C(=O)N[C@@H](CCCCN)C(=O)N[C@@H](Cc1c[nH]c2ccccc12)C(=O)N1CCC[C@H]1C(=O)N[C@@H](Cc1c[nH]c2ccccc12)C(=O)N[C@@H](CC(C)C)C(=O)N1CCC[C@H]1C(=O)N[C@@H](Cc1c[nH]c2ccccc12)C(=O)N[C@@H](CCCCN)C(=O)N[C@@H](CCCCN)C(N)=O [ILPWKWPWLPWKK]

MIC [15]: 3.45 µM (≈ 6.25 µg/mL)
MIC [16]: 13.8 µM (≈ 25 µg/mL)
MIC [17]: 1.73 µM (≈ 3.13 µg/mL)
Compound: CC[C@H](C)[C@H](N)C(=O)N[C@@H](CC(C)C)C(=O)N1CCC[C@H]1C(=O)N[C@@H](Cc1c[nH]c2ccccc12)C(=O)N[C@@H](CCCCN)C(=O)N[C@@H](Cc1c[nH]c2ccccc12)C(=O)N1CCC[C@H]1C(=O)N[C@@H](Cc1ccc(O)cc1)C(=O)N[C@@H](CC(C)C)C(=O)N1CCC[C@H]1C(=O)N[C@@H](Cc1c[nH]c2ccccc12)C(=O)N[C@@H](CCCN=C(N)N)C(=O)N[C@@H](CCCN=C(N)N)C(N)=O [ILPWKWPYLPWRR]

MIC [18]: 2.9 µM (≈ 5.79 µg/mL)
MIC [19]: 0.7 µM (≈ 1.4 µg/mL)
MIC [20]: 0.7 µM (≈ 1.4 µg/mL)
MIC [21]: 5.7 µM (≈ 11.4 µg/mL)
MIC [22]: 2.9 µM (≈ 5.79 µg/mL)
MIC [23]: 5.7 µM (≈ 11.4 µg/mL)
MIC [24]: 1.4 µM (≈ 2.8 µg/mL)
Compound: CC[C@H](C)[C@H](N)C(=O)N[C@@H](CC(C)C)C(=O)N1CCC[C@H]1C(=O)N[C@@H](Cc1c[nH]c2ccccc12)C(=O)N[C@@H](CCCCN)C(=O)N[C@@H](Cc1c[nH]c2ccccc12)C(=O)N[C@@H](CCCN=C(N)N)C(=O)N[C@@H](Cc1c[nH]c2ccccc12)C(=O)N[C@@H](Cc1c[nH]c2ccccc12)C(=O)N[C@@H](CCCCN)C(=O)N[C@@H](Cc1c[nH]c2ccccc12)C(=O)N[C@@H](CCCN=C(N)N)C(=O)N[C@@H](CCCN=C(N)N)C(=O)O [ILPWKWRWWKWRR]

MIC [6]: 14.1 µM (≈ 42.5 µg/mL)
MIC [12]: 14.1 µM (≈ 42.5 µg/mL)
MIC [13]: 14.1 µM (≈ 42.5 µg/mL)
Compound: CC[C@H](C)[C@H](NC(=O)[C@@H](NC(=O)[C@@H](N)CCCNC(=N)N)[C@@H](C)CC)C(=O)N[C@@H](CC(=O)O)C(=O)N[C@@H](CC(C)C)C(=O)N[C@@H](CC(C)C)C(=O)N[C@@H](Cc1c[nH]c2ccccc12)C(=O)N[C@@H](CCCNC(=N)N)C(=O)N[C@H](C(=O)N[C@@H](CCCNC(=N)N)C(=O)N[C@@H](CCCNC(=N)N)C(=O)N1CCC[C@H]1C(=O)N[C@@H](CCC(N)=O)C(=O)N[C@@H](Cc1c[nH]c2ccccc12)C(=O)N1CCC[C@H]1C(=O)N[C@@H](CCCCN)C(=O)N[C@@H](Cc1ccccc1)C(=O)N[C@H](C(=O)N[C@H](C(=O)N[C@H](C(=O)N[C@@H](Cc1c[nH]c2ccccc12)C(=O)N[C@H](C(=O)N[C@H](C=O)CCCNC(=N)N)C(C)C)C(C)C)[C@@H](C)O)C(C)C)C(C)C [RIIDLLWRVRRPQWPKFVTVWVR]

MIC [18]: 21.4 µM (≈ 31 µg/mL)
MIC [19]: 86.2 µM (≈ 125 µg/mL)
MIC [20]: 21.4 µM (≈ 31 µg/mL)
MIC [21]: 21.4 µM (≈ 31 µg/mL)
MIC [22]: 86.2 µM (≈ 125 µg/mL)
MIC [23]: ≥ 43.4 µM
MIC [24]: 11 µM (≈ 16 µg/mL)
Compound: CC[C@H](C)[C@H](NC(=O)[C@H](CCCCN)NC(=O)[C@@H](NC(=O)[C@@H](NC(=O)[C@H](CCCN=C(N)N)NC(=O)[C@H](C)NC(=O)[C@H](CC(C)C)NC(=O)[C@@H](N)CCCN=C(N)N)[C@@H](C)CC)C(C)C)C(=O)N[C@@H](CCCN=C(N)N)C(=O)N[C@H](C(=O)N[C@@H](C)C(=O)N[C@@H](CCCN=C(N)N)C(N)=O)C(C)C [RLARIVKIRVAR]
